Measurements as given in patent US20210284691A1, “CBX8 CHROMDOMAIN INHIBITORS AND THE USES THEREOF” (Purdue Research Foundation, priority 2019, published 2021).
Square brackets hold non-standard residues; d marks the D form. Peptide text beside a SMILES is read from it. * marks the point of attachment. Tyr(3-Cl) = N[C@@H](Cc1ccc(O)c(Cl)c1)C(=O)O; Benzoyl(3,5-Cl2) = O=C(c1cc(Cl)cc(Cl)c1)*; Lys(Et2) = CCN(CC)CCCC[C@H](N)C(=O)O; Gly(cPent) = N[C@H](C(=O)O)C1CCCC1; NH(propargyl) = C#CCN*

Columns and labels:
[1] = molecular target: T1, CBX8 binding to chromatin (Homo sapiens, UniProt Q9HC52); assay: ChIP-qPCR in K562 cells; assay type: cell-based
T1 construct: endogenous in cells; host or cells: Hs68 fibroblasts (A16); HEK293T (A19); K562 (A23)
T1 sequence (Q9HC52 1-389): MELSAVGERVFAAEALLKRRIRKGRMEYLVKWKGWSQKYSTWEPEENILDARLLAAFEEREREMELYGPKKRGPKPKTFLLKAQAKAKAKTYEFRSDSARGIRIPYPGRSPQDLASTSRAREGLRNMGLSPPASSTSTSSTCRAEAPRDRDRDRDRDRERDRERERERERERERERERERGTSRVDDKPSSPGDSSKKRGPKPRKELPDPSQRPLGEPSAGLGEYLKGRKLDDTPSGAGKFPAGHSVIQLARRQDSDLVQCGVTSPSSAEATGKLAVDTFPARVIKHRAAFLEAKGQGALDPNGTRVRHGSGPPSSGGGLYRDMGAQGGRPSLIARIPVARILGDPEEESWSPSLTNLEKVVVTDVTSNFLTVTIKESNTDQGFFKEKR
Procedure: FIGS. 11A-11E: Cellular Activity of CBX2 ChD Ligand. FIG. 11A) Relative cytosolic access of SW2_152F conjugated to a chloroalkane (SW2_152F-CA, SEQ ID NO: 28) was evaluated using chloroalkane penetration assay (CAPA). The half maximal cell penetration value (CP50) of SW2_152F-CA was determined for SW2_152F-CA and CBX8 inhibitor SW2_110A-CA. FIG. 11B) Chemoprecipitations from HEK293T nuclear lysates using biotinylated SW2_152F (SW2_152F-B, SEQ ID NO: 29) were analyzed using immunoblot analysis. FIG. 11C) Analysis and quantification of SW2_152F in abrogating bulk binding of endogenous CBX proteins to chromatin in HEK293T cells by Sequential Salt Extraction. FIG. 11D). Chromatin immunoprecipitation (ChIP) from K562 cells using antibodies against IgG, H3K27me3, CBX2 and CBX8 was followed by quantitative PCR of genomic regions near Tm9SF4 (negative locus), TCF21, Fyn-2, and PAX7. Cells were treated with 10 μM SW2_152F for 4 h prior to harvest. FIG. 11E) Chromatin immunoprecipitation (ChIP) in Hs68 fibroblast cells using antibodies against IgG, CBX7, and CBX8 followed by quantitative PCR of genomic regions at LMNB2 (negative locus), CCND2, and RUNX3. Cells were treated with 100 μM SW2_152F for 4 h prior to harvest. For all qPCR, error bars represent SEM n=3 biological replicates, p-values were calculated using two-tailed Student's t-test, * p<0.05, **=p<0.01, ***=p<0.001, ****=p<0.0001.
ChIP-qPCR. After validating selectivity using lysate and bulk chromatin, we wanted to determine whether the inhibitor can disrupt CBX2 binding to chromatin in live cells. We used chromatin immunoprecipitation (ChIP) followed by quantitative PCR (ChIP-qPCR) of sites with CBX2, CBX8 and H3K27me3 enrichment in K562 ChIP-Seq datasets in ENCODE (M. Azkanaz, et al., Elife 2019). We evaluated effects of compound treatment at both 10 μM and 100 μM SW2_152F. […] In order to evaluate SW2_152F activity against a paralog with no binding to SW2_152F in vitro, CBX7 ChIP-qPCR was performed in Hs68 fibroblast cells, which have no detectable CBX2 expression (H. Pemberton, et al., Genome Biol. 2014).

[2] = molecular target: T1, CBX8 binding to chromatin; assay: ChIP-qPCR in Hs68 fibroblast cells; assay type: cell-based; settings: 100 μM, 4 h
Procedure: ChIP: Hs68 cells were seeded at 4×10^6 in a 10 cm cell culture plates 16 hours prior to treatment. […] ChIP was performed as described in Connelly et al., 2018. Birefly, cells were washed with PBS and fixed on the plate with CiA Fix buffer (50 mM HEPES, pH 8.0, 1 mM EDTA, 0.5 mM ETGA, 100 mM NaCl) and 1% formaldehyde for 10 min at room temperature. Crosslinking was quenched with 0.125 M glycine for 5 min at 4° C. Cells were washed once with PBS and lifted off the plate then resuspended in CiA NP Rinse buffer 1 (50 mM HEPES pH 8.0, 140 mM NaCl, 1 mM EDTA, 10% glycerol, 0.5% NP-40, 0.25% Triton X) for 10 min. Cells were pelleted at 1200×g for 5 min at 4° C. The supernatant was removed, and the cells were resuspended in CiA NP rinse buffer 2 (10 mM Tris pH 8.0, 1 mM EDTA, 0.5 mM EGTA, 200 mM NaCl). Cells were collected by centrifugation, 1200×g for 5 min. Supernatant was removed and the cells were washed twice with shearing buffer (0.1% SDS, 1 mM EDTA, 10 mM Tris HCl, pH 8.0). Cells were resuspended in shearing buffer and sonicated for 7 min with the probe (Branson). Lysate was centrifuged at 21,000×g for 15 min to remove debris. Supernatant was collected and pre-cleared overnight with Protein A/G magnetic beads (Pierce). […]
qPCR: qPCR was performed on the isolated ChIP DNA using SYBR master mix (Thermo) and run on the BioRad CFX thermo cycler. […] Enrichment was determined by percent input. […]

For `C#CCNC(=O)[C@H](CO)NC(=O)[C@H](CCCCN(CC)CC)NC(=O)[C@@H](NC(=O)[C@@H](NC(=O)[C@H](Cc1ccc(O)c(Cl)c1)NC(=O)c1cc(Cl)cc(Cl)c1)C1CCCC1)[C@@H](C)CC` [SW2_152F] ({Benzoyl(3,5-Cl2)}-[Tyr(3-Cl)][Gly(cPent)]I[Lys(Et2)]S-{NH(propargyl)}), the “CBX8 binding, ChIP-qPCR” value ([1]; 10 μM, 4 h) was “not CBX8 binding”, the “CBX8 binding, ChIP-qPCR” value ([1]; 100 μM) was “significant reduction of both CBX2 and CBX8 binding” and the “CBX8 binding at target loci, ChIP-qPCR” value [2] was “significant reduction of CBX8 binding”.
